Assay results published in publication PMC6862080, “Blood Compatibility—An Important but Often Forgotten Aspect of the Characterization of Antimicrobial Peptides for Clinical Application” (International Journal of Molecular Sciences, 2019).
Peptide text beside a SMILES is read from it. * marks the point of attachment. Myristoyl = CCCCCCCCCCCCCC(=O)*; Lauroyl = CCCCCCCCCCCC(=O)*; Decanoyl = CCCCCCCCCC(=O)*; Octanoyl = CCCCCCCC(=O)*

Key:
erythrocyte membranes [1] = test: Hemolysis in whole blood (Kahn method); format: cell-based, human
Experimental: (§1) Hemolysis was tested with fresh citrate anticoagulated blood from healthy volunteers as well as with blood cells which were suspended in phosphate buffered saline (10 mM pH 7.4). Afterwards, 100 μL AMP solution was added to 500 μL blood to finally achieve AMP concentrations of 8, 32, and 128 μg/mL. As the negative and positive control, 100 μL PBS buffer and 100 μL 12% Triton-X buffer was added to 500 μL blood, respectively. After incubation on an orbital shaker for 60 min at 37 °C, the cells were removed by centrifugation and 100 μL of the supernatant were transferred to a 96 well microplate for hemolysis measurement. The hemolysis was calculated from the extinction at the wavelengths 562, 578, and 598 nm with a Synergy 2 microplate reader (BioTek, Winooski, VT, USA) according to the method published by Kahn.

erythrocyte membranes [2] = test: Hemolysis in RBC suspended in PBS (Kahn method); format: cell-based, human; settings: pH 7.4
Experimental: as §1

S. aureus (ATCC 12600) = test: microbe, parasite or virus in culture; format: cell-based; settings: ATCC 12600, pH 7.4
E. coli (ATCC 11303) = test: microbe, parasite or virus in culture; format: cell-based; settings: ATCC 11303, pH 7.4
plasmatic coagulation = test: Clotting batch test in citrate plasma; format: biochemical, human
Experimental: Since the acylated LF11-322 peptides cause plasmatic coagulation of citrate anticoagulated plasma, separate clotting experiments were performed with this peptide group. The aim was to check whether the coagulation activation is dependent on the AMP concentration and on the acyl chain length. […] Plasma without additives served as the negative control, whereas plasma spiked with CaCl2/MgCl2 (500/250 mM) solution to restore the physiological calcium and magnesium level in plasma was used as the positive control. Incubation was performed at 37 °C for 60 min. […] In order to ensure that the measured turbidity of the plasma is caused by fibrin formation, the fibrinogen and D-Dimer concentrations were additionally determined. During plasmatic clotting, the fibrinogen level decreases and the D-Dimer level in serum increases. Both were analyzed on a Sysmex CA560 with the corresponding reagents (Siemens Healthineers, Erlangen, Germany).

platelets [3] = test: Platelet activation, platelet count in citrate anticoagulated PRP; format: cell-based, human; settings: 128 μg/mL, 2 h, 37 °C, Sysmex analyzer, n = 3
Experimental: (§2) Since it was observed that some AMPs are able to activate the plasmatic coagulation system of heparinized and citrate anticoagulated blood, the influence of this peptides on platelets was investigated. For this purpose, fresh heparinized and citrated blood were collected from three donors. The blood was centrifuged at 500 g for 5 min and platelet rich plasma (PRP) was obtained. The PRP was incubated at 37 °C for 2 h with 128 μg/mL AMP, PMB, and LL-37. PRP without any additives served as the control. After incubation, the platelet number was determined by a Sysmex Automated Hematology Analyzer KX-21-N (Kobe, Japan). In addition, the PRP samples were prepared for SEM to visualize the morphology of the thrombocytes. After incubation, 10 μL PRP were diluted with 990 μL PBS (0.01 M) and filtered through a 0.2 μm membrane (Membrane Filter Isopore 0.2 μm, Merck, Darmstadt, Germany). The platelets were retained on the membrane, washed with 1 mL PBS, and fixed with 1 mL glutaraldehyde solution (2.5% glutaraldehyde in physiological saline solution). After an incubation time of 60 min, the samples were dehydrated using a series of ethanol (30%, 50%, 60%, 70%, 80%, 90%, and 100%). Afterwards the samples were dried overnight at RT, sputtered with gold and visualized with a scanning electron microscope (FLEXSem 1000, Hitachi, Japan).

platelets [4] = test: Platelet activation, platelet count in heparin anticoagulated PRP; format: cell-based, human; settings: 128 μg/mL, 2 h, 37 °C, Sysmex analyzer, n = 3
Experimental: as §2

LPS from P. aeruginosa = test: Endotoxin inactivation in human serum, chromogenic LAL test (P. aeruginosa LPS); format: biochemical; settings: 500 ng/mL peptide, n = 3; for Reduction of the endotoxin activity in serum vs positive control (in words): 5 ng/mL P. aeruginosa LPS
Experimental: The LPS neutralization study in serum was conducted using a chromogenic Limulus Amebocyte Lysate (LAL) test (Charles River Laboratories, MA, USA). The LAL test is the most established method for quantifying LPS. This method uses amebocyte lysate from Limulus polyphemus, wherein the presence of LPS triggers a defense mechanism that induces coagulation. The LAL test is used successfully for detection of LPS in a wide variety of industrial, pharmaceutical, and research applications, such as water supplies, parenteral fluids, drugs for intravenous administration, and certain biologic fluids (e.g., cerebrospinal fluid). Therefore, serum, which was obtained from freshly drawn blood, was spiked with 500 ng/mL AMPs, PMB or LL-37 before adding 5 ng/mL LPS from E. coli or P. aeruginosa. As positive and negative controls, native serum with and without LPS was used, respectively. Endotoxin activity was measured using the LAL assay according to the manufacturer’s specifications.

platelets [5] = test: SEM imaging of platelet morphology in PRP; format: cell-based, human; settings: 128 μg/mL, 2 h, 37 °C
Experimental: as §2

human leukocytes = test: Cytotoxicity on leukocytes in whole blood, flow cytometry (7-AAD); format: cell-based; settings: whole blood, 128 μg/mL, flow cytometry, n = 3
Experimental: The measurement of the membrane destabilization of leukocytes by AMPs was carried out by flow cytometry. […] Whole blood without AMPs or antibiotics was used as a control. After incubation, the proportion of apoptotic and dead cells was determined by flow cytometry. To achieve this, blood samples were diluted 1:100 with 0.01 M phosphate buffered saline and centrifuged at 300 g for 10 min. The supernatant was removed, and cells were stained with 10 μL CD45 pacific blue (leukocyte marker; Beckman coulter, Brea, CA) and 10 μL 7-AAD (a marker for dead cells; Sigma-Aldrich, Steinheim, Germany) for 15 min at room temperature in the dark. After incubation, 1.8 mL lysis buffer (1:10 dilution in distilled water) was added, mixed, and incubated for 10 min at room temperature in the dark. This was followed by two washing steps (2300 g, 5 min, room temperature) and the cells were resuspended in a final volume of 200 μL 0.01 M PBS for measurement. Flow cytometry was performed using a Gallios flow cytometer (Beckman Coulter, Brea, CA, USA) equipped with 405 nm, 488 nm, and 638 nm lasers and the Kaluza Analysis Software (Beckman Coulter, Brea, CA, USA), which was used for measurement and data analysis. Blood cells which were incubated in 70% methanol before staining served as the positive control and blood cells without any additives were used as the negative control.

Peptide concentration that triggers clotting of citrate plasma (plasmatic coagulation) [µg/mL]	Molecule	Free Hemoglobin, BLOOD, 8 μg/mL (erythrocyte membranes [1]) [mg/dL]	Free Hemoglobin, BLOOD, 32 μg/mL (erythrocyte membranes [1]) [mg/dL]	Free Hemoglobin, BLOOD, 128 μg/mL (erythrocyte membranes [1]) [mg/dL]	Free Hemoglobin, RBC in PBS, 8 μg/mL (erythrocyte membranes [2]) [mg/dL]	Free Hemoglobin, RBC in PBS, 32 μg/mL (erythrocyte membranes [2]) [mg/dL]	Minimal Inhibitory Concentration, S. aureus, PBS (S. aureus (ATCC 12600)) [µg/mL]	Minimal Inhibitory Concentration, E. coli, PBS (E. coli (ATCC 11303)) [µg/mL]	Platelet count in citrate anticoagulated PRP vs control (in words) (platelets [3])	Platelet count in heparinized PRP vs control (in words) (platelets [4])	Reduction of the endotoxin activity in serum vs positive control (in words) (LPS from P. aeruginosa)	Reduction of endotoxin activity of P. aeruginosa LPS (LPS from P. aeruginosa; 5 ng/mL LPS) [%]	Platelet morphology by SEM, citrate anticoagulated PRP (in words) (platelets [5])	Cytotoxic effect on leukocytes in whole blood (in words) (human leukocytes)
–	H-FWRRFWRR-NH2 [LF11-227-NH2]	2.4 ± 3.1	9.5 ± 12.3	2.5 ± 3.8	10.0 ± 2.2	14.6 ± 3.2	8	8	–	–	–	–	–	–
–	CCCCCCCCCC(=O)N[C@@H](Cc1ccccc1)C(=O)N[C@@H](Cc1c[nH]c2ccccc12)C(=O)N[C@@H](CCCNC(=N)N)C(=O)N[C@@H](CCCNC(=N)N)C(=O)N[C@@H](Cc1ccccc1)C(=O)N[C@@H](Cc1c[nH]c2ccccc12)C(=O)N[C@@H](CCCNC(=N)N)C(=O)N[C@@H](CCCNC(=N)N)C(N)=O [LF11-227-C10] (Decanoyl-FWRRFWRR-NH2)	2.3 ± 0.6	4.2 ± 1.4	2.7 ± 4.2	18.0 ± 6.7	45.1 ± 20.5	> 128	> 128	–	–	–	–	–	–
≥ 256	CCCCCCCC(=O)N1CCC[C@H]1C(=O)N[C@@H](Cc1ccccc1)C(=O)N[C@@H](Cc1c[nH]c2ccccc12)C(=O)N[C@@H](CCCNC(=N)N)C(=O)N[C@H](C(=O)N[C@@H](CCCNC(=N)N)C(=O)N[C@H](C(=O)N[C@@H](CCCNC(=N)N)C(=O)N[C@@H](CCCNC(=N)N)C(N)=O)[C@@H](C)CC)[C@@H](C)CC [LF11-322-C8] (Octanoyl-PFWRIRIRR-NH2)	2.2 ± 0.5	9.0 ± 3.8	2.7 ± 3.7	12.9 ± 1.5	26.1 ± 2.5	8	8	–	–	–	–	–	–
–	CCCCCCCCCCCC(=O)N1CCC[C@H]1C(=O)N[C@@H](Cc1ccccc1)C(=O)N[C@@H](Cc1c[nH]c2ccccc12)C(=O)N[C@@H](CCCNC(=N)N)C(=O)N[C@H](C(=O)N[C@@H](CCCNC(=N)N)C(=O)N[C@H](C(=O)N[C@@H](CCCNC(=N)N)C(=O)N[C@@H](CCCNC(=N)N)C(N)=O)[C@@H](C)CC)[C@@H](C)CC [LF11-322-C12] (Lauroyl-PFWRIRIRR-NH2)	2.4 ± 2.6	8.6 ± 8.6	3.2 ± 4.5	15.5 ± 1.2	36.1 ± 2.0	16	32	significantly reduce the platelet count	no significant difference in platelet count	–	–	–	–
–	CCCCCCCCCCCC(=O)N[C@@H](Cc1ccccc1)C(=O)N[C@@H](Cc1c[nH]c2ccccc12)C(=O)N[C@@H](CCCNC(=N)N)C(=O)N[C@@H](CCCNC(=N)N)C(=O)N[C@@H](Cc1ccccc1)C(=O)N[C@@H](Cc1c[nH]c2ccccc12)C(=O)N[C@@H](CCCNC(=N)N)C(=O)N[C@@H](CCCNC(=N)N)C(N)=O [LF11-227-C12] (Lauroyl-FWRRFWRR-NH2)	2.6 ± 1.4	4.3 ± 2.5	2.5 ± 3.6	11.6 ± 3.2	26.3 ± 12.3	> 128	> 128	–	–	significant (p < 0.05) reduction	–	–	–
–	CCCCCCCC(=O)N[C@@H](Cc1ccccc1)C(=O)N[C@@H](Cc1c[nH]c2ccccc12)C(=O)N[C@@H](CCCNC(=N)N)C(=O)N[C@@H](CCCNC(=N)N)C(=O)N[C@@H](Cc1ccccc1)C(=O)N[C@@H](Cc1c[nH]c2ccccc12)C(=O)N[C@@H](CCCNC(=N)N)C(=O)N[C@@H](CCCNC(=N)N)C(N)=O [LF11-227-C8] (Octanoyl-FWRRFWRR-NH2)	3.6 ± 2.8	10.5 ± 13.5	2.3 ± 3.7	13.0 ± 0.7	15.9 ± 2.6	> 128	> 128	–	–	–	–	–	–
–	CCCCCCCCCC(=O)N1CCC[C@H]1C(=O)N[C@@H](Cc1ccccc1)C(=O)N[C@@H](Cc1c[nH]c2ccccc12)C(=O)N[C@@H](CCCNC(=N)N)C(=O)N[C@H](C(=O)N[C@@H](CCCNC(=N)N)C(=O)N[C@H](C(=O)N[C@@H](CCCNC(=N)N)C(=O)N[C@@H](CCCNC(=N)N)C(N)=O)[C@@H](C)CC)[C@@H](C)CC [LF11-322-C10] (Decanoyl-PFWRIRIRR-NH2)	2.5 ± 2.0	6.0 ± 4.6	3.0 ± 4.5	16.6 ± 2.4	48.5 ± 5.5	8	8	–	–	–	–	–	–
–	CCCCCCCCCCCCCC(=O)N[C@@H](Cc1ccccc1)C(=O)N[C@@H](Cc1c[nH]c2ccccc12)C(=O)N[C@@H](CCCNC(=N)N)C(=O)N[C@@H](CCCNC(=N)N)C(=O)N[C@@H](Cc1ccccc1)C(=O)N[C@@H](Cc1c[nH]c2ccccc12)C(=O)N[C@@H](CCCNC(=N)N)C(=O)N[C@@H](CCCNC(=N)N)C(N)=O [LF11-227-C14] (Myristoyl-FWRRFWRR-NH2)	3.4 ± 2.1	3.1 ± 0.9	2.6 ± 3.5	18.3 ± 12.8	41.9 ± 19.9	> 128	> 128	–	–	significant (p < 0.05) reduction	37 ± 5	–	–
–	H-PFWRIRIRR-NH2 [LF11-322-NH2]	5.0 ± 5.3	5.9 ± 4.4	2.6 ± 3.7	10.4 ± 2.4	14.2 ± 3.5	4	4	–	–	–	–	strongly change their shape	no cytotoxic properties on leukocytes
